Source: PubChem BioAssay (NCI)
Several values for one entry are separate records, joined by “and”; a condition that tells them apart may be missing. Identical values can stand only once.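 Growth conditions: 96-well plates. Treatment: test compound, 48 hours, 5 concentrations. Analysis: linear interpolation between bracketing concentrations; unreached endpoints set to highest concentration. Abbreviation: GI50, concentration required for 50% inhibition of growth. TGI: concentration producing complete growth inhibition.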

Columns and labels:
Assay in all cases: NCI tumour cell line growth inhibition, 48 h
HS 578T breast = system: HS 578T breast
HT29 colon = system: HT29 colon
MDA-MB-435 = system: MDA-MB-435
NCI-H226 lung = system: NCI-H226 lung
NCI-H460 lung = system: NCI-H460 lung
OVCAR-8 ovarian = system: OVCAR-8 ovarian
SF-539 CNS = system: SF-539 CNS
SK-OV-3 ovarian = system: SK-OV-3 ovarian
LXFL 529 NSCLC = system: LXFL 529 NSCLC

Structure (SMILES) | TGI (HS 578T breast) | TGI (HT29 colon) | TGI (MDA-MB-435) [µM] | TGI (NCI-H226 lung) | TGI (NCI-H460 lung) | TGI (OVCAR-8 ovarian) | TGI (SF-539 CNS) | TGI (SK-OV-3 ovarian) | GI50 (HS 578T breast) [µM] | GI50 (HT29 colon) [µM] | GI50 (MDA-MB-435) [µM] | GI50 (NCI-H226 lung) [µM] | GI50 (NCI-H460 lung) [µM] | GI50 (OVCAR-8 ovarian) [µM] | GI50 (SF-539 CNS) [µM] | GI50 (SK-OV-3 ovarian) [µM] | TGI (LXFL 529 NSCLC) [µM]
CC(C)CCCC(C)[C@H]1CCC2[C@@H]3CCC4Cc5nc6c(nc5C[C@]4(C)C3CC[C@@]21C)CC1CC[C@@H]2C(CC[C@@]3(C)C2CC[C@@H]3C(C)CCCC(C)C)[C@@]1(C)C6 (stereo not given in full) | > 100 µM | > 100 µM | > 100 | > 100 µM | > 100 µM | > 100 µM | > 100 µM | > 100 µM | – | – | – | – | – | – | – | – | –
COc1cc(OC)c2nc(C)c3c(c2c1)SCC3 | 57.7 µM | 99.4 µM | 58.3 | 43.8 µM | 54.3 µM | 35.4 µM | 35.8 µM | 48.9 µM | – | – | – | – | – | – | – | – | –
CC1=C(C(=O)Nc2ccc3n[nH]c(C)c3c2)C(c2ccc(C(F)(F)F)cc2)CC(=O)N1 (stereo not given) | 19.5 µM | > 25 µM | > 25 | > 17.7 µM | > 25 µM | > 25 µM | > 25 µM | > 25 µM | 0.305 | > 25 | > 21 | 0.709 | 16.5 | > 25 | 7.12 | 24.2 | –
Cc1[nH]c2ccccc2c1CCCO | > 100 µM | > 100 µM | > 100 | > 100 µM | > 100 µM | > 100 µM | > 100 µM | > 100 µM | 54.9 | > 100 | > 100 | > 100 | > 100 | > 100 | > 100 | > 100 | –
O=C1NNC2(C(=O)N1)c1ccccc1-c1ccccc12 | > 10 µM | > 10 µM | > 10 | > 10 µM | > 10 µM | > 10 µM | > 10 µM | > 10 µM | – | – | – | – | – | – | – | – | –
C/C(O)=C(/C=N/C(=S)Nc1ccc(S(N)(=O)=O)cc1)C(=O)Nc1ccccc1C | > 100 µM | > 100 µM | > 100 | > 100 µM | > 100 µM | > 100 µM | > 100 µM | > 100 µM | – | – | – | – | – | – | – | – | –
Cc1ccccc1OCC(O)CN1CCN(c2ccc(Cl)cc2)CC1 (stereo not given) | 68.7 µM | 29.2 µM | 28.8 | 35.9 µM | 34.1 µM | 44.4 µM | 36.5 µM | 53.8 µM | 21.4 | 14.5 | 14.4 | 18.6 | 16.7 | 21 | 19.5 | 21.2 | –
C[C@H]1CC[C@@]2(NC1)O[C@H]1C[C@H]3[C@@H]4CC[C@H]5C[C@@H](O)CC[C@]5(C)[C@H]4CC[C@]3(C)[C@H]1[C@@H]2C | 50 µM and > 100 µM | 50 µM and > 100 µM | 50 | 35.8 µM and > 100 µM | 34.8 µM and > 100 µM | 50 µM and > 100 µM | 32.2 µM and > 100 µM | 50 µM and > 100 µM | 21.8 | 9.75 | 17.3 | 13.8 | 11.9 | – | 13.8 | 22.7 | –
COc1cccc(-c2c[nH]c3c(N/N=C/c4ccncc4)ncnc23)c1 | 9.97 µM | 8.9 µM | 6.9 | > 16 µM | 5.89 µM | 11.8 µM | 6.81 µM | 3.91 µM | 0.816 | 1.58 | 1.83 | 1.75 | 1.4 | 2.57 | 1.56 | 0.903 | –
CC1(C)C2CCC13C(=O)C1OC3(C2)C2C(=O)c3ccccc3C(=O)C12 (stereo not given) | > 100 µM | > 100 µM | > 100 | > 100 µM | > 100 µM | > 100 µM | > 100 µM | > 100 µM | > 100 | > 100 | > 100 | > 100 | > 100 | > 100 | > 100 | > 100 | –
COc1cc(C(=O)c2c(-c3ccccc3)oc3c(OC)cccc23)cc(OC)c1OC | > 24.1 µM | > 100 µM | 0.0577 | – | > 100 µM | > 100 µM | 0.173 µM | > 100 µM | 0.0984 | 0.0491 | 0.0216 | 0.236 | 0.0518 | 0.11 | 0.0293 | 1.57 | –
C/C(=N/NC(=S)N1CCCCC1)c1ccccc1O | > 31.6 µM | > 31.6 µM | > 31.6 | > 31.6 µM | > 31.6 µM | > 31.6 µM | > 100 µM | > 31.6 µM | – | – | – | – | – | – | – | – | –
COc1cc2c(cc1OC)[C@H](C)N1CCc3cc(OC)c(OC)cc3[C@@H]1C2 | > 100 µM | > 100 µM | > 100 | > 100 µM | > 100 µM | > 100 µM | > 100 µM | > 100 µM | – | – | – | – | – | – | – | – | –
Cc1c(C(=O)Nc2ccccc2)sc2ncn(Cc3cccc(Cl)c3)c(=O)c12 | > 100 µM | > 100 µM | > 100 | 41.6 µM | > 100 µM | 89.1 µM | > 100 µM | > 100 µM | 42.6 | 78.4 | 24.2 | 10.6 | > 100 | 28.7 | 22.4 | > 100 | –
CSC1=C(N)C(=O)c2[nH]cc(CO)c2C1=N | 0.796 µM | 0.498 µM | 0.165 | 0.45 µM | 0.338 µM | 0.948 µM | 0.309 µM | 1.85 µM | 0.282 | 0.161 | 0.0473 | 0.206 | 0.154 | 0.275 | 0.171 | 0.623 | –
CCOC(C[C@H](O[Si](C)(C)C(C)(C)C)[C@H]1COC(=S)S1)OCC | – | 41.9 µM | – | > 100 µM | > 100 µM | > 100 µM | > 100 µM | – | – | – | – | – | – | – | – | – | > 100
COC(C(=O)NN)c1ccccc1 (stereo not given) | > 100 µM | > 100 µM | > 100 | > 100 µM | > 100 µM | > 100 µM | > 100 µM | > 100 µM | – | – | – | – | – | – | – | – | –
Cc1ccc(S(=O)(=O)c2c(COC(=O)c3cccc(C)c3)c(-c3ccccc3)nn2C)cc1 | > 100 µM | > 100 µM | > 100 | > 100 µM | > 100 µM | > 100 µM | > 100 µM | > 100 µM | > 100 | > 100 | > 100 | > 100 | > 100 | > 100 | > 100 | > 100 | –
